One series has as its system Aphidius rhopalosiphi. Description: LR50; higher = less toxic. Particulars: not reported; mortality.
The subject of the next series is Oryctolagus sp. As to conditions: reproduction developmental; body weight.
The next series relates to Pimephales promelas. As to conditions: chronic/long-term; duration: 110 days; reproduction.
Another series concerns Tagia sp. Particulars: chronic/long-term; growth.
The next series concerns Cyprinus carpio. Particulars: acute; duration: 96 hours; mortality.
A further series deals with Apis mellifera. Particulars: acute, mortality.
The next series deals with Bibionidae. Particulars: chronic/long-term.
The subject of a further series is Canidae. Particulars: subchronic; duration: 90 days; oral; M/F; Dog Other; body weight.

In the case of `CC[C@H]1CCC[C@H](O[C@H]2CC[C@H](N(C)C)[C@@H](C)O2)[C@@H](C)C(=O)C2=C[C@@H]3[C@@H](C=C(C)[C@@H]4C[C@@H](O[C@@H]5O[C@@H](C)[C@H](OC)[C@@H](OC)[C@H]5OC)C[C@@H]34)[C@@H]2CC(=O)O1.CC[C@H]1CCC[C@H](O[C@H]2CC[C@H](N(C)C)[C@@H](C)O2)[C@@H](C)C(=O)C2=C[C@@H]3[C@@H](C=C[C@@H]4C[C@@H](O[C@@H]5O[C@@H](C)[C@H](OC)[C@@H](OC)[C@H]5OC)C[C@@H]34)[C@@H]2CC(=O)O1` [Spinosad], the LR50 with Aphidius rhopalosiphi turned out to be 0.371 g/ha. For the same compound, the LD50 in the series on Rattus norvegicus (acute, oral, mortality) is greater than 2000 mg/kg-day; in the series with Anas platyrhynchos (acute, oral, unspecified, mortality) it was greater than 2000 mg/kg-day; in the series with Apis mellifera (dermal) it was 0.0036 µg/piece; in the series with Apis mellifera (oral, unspecified), 0.057 µg/piece; in the series with Colinus virginianus (acute, oral, mortality) it was greater than 2000 mg/kg-day. The no observed adverse effect level (NOAEL) (usually the highest dose or exposure tested at which no adverse effect was seen) in the series with Rattus norvegicus (chronic, duration: 2 years, oral, diet, M, Fischer 344, organ weight) is 2.4 mg/kg-day; in the series on Rattus norvegicus (reproduction developmental, M/F, reproduction) it was 10 mg/kg-day; in the series with Oryctolagus sp. it was 10 mg/kg-day; in the series with Anas platyrhynchos (chronic/long-term), 78.1 mg/kg-day; in the series with Colinus virginianus (chronic) it was 68.5 mg/kg-day; with Canidae it was 4.89 mg/kg-day. Moreover, the NOEC turned out to be 0.217 mg/L in the series on Pimephales promelas, 35.2 mg/kg in the series on Tagia sp., 0.62 µg/L in the series on Bibionidae (duration: 25 days) and 0.0585 mg/kg with Bibionidae (duration: 28 days). Moreover, the LEL in the series with Anas platyrhynchos (chronic/long-term, mortality) was determined as 200 mg/kg-day; with Colinus virginianus (chronic, mortality), 200 mg/kg-day. Also, in the series with Cyprinus carpio, the LC50 (as a rule, the concentration lethal to half of the exposed cells or organisms) was found to be 4 µg/mL.

These data come from EPA's ToxValDB 9.5 (doi:10.2903/j.efsa.2018.5252).
